Reference: the kinase profiling compilation of Christmann-Franck et al. (2016)
Values joined by “and” are separate entries in the source; they are usually repeats but may differ in a detail not shown here. Equal values may be shown once. One block for each compound: values may come before it.

Columns and labels:
Test in all cases: Caliper, Mobility shift assay off-chip
[1] = tested on: ABL1 (human), P00519 [H396P]
[2] = biological target: ABL2 (human) (UniProt P42684)
[3] = biological target: AKT1 (human) (UniProt P31749)
[4] = biological target: AKT3 (human) (UniProt Q9Y243)
[5] = biological target: AURKB (human) (UniProt Q96GD4)
[6] = biological target: AURKC (human) (UniProt Q9UQB9)
[7] = biological target: CAMK2D (human) (UniProt Q13557)
[8] = biological target: CAMK2G (human) (UniProt Q13555)
[9] = biological target: CHEK2 (human) (UniProt O96017)
[10] = biological target: CSNK1D (human) (UniProt P48730)
[11] = biological target: DCLK2 (human) (UniProt Q8N568)
[12] = biological target: FER (human) (UniProt P16591)
[13] = biological target: FGFR3 (human) (UniProt P22607)
[14] = biological target: FGFR4 (human) (UniProt P22455)
[15] = tested on: FLT3 (human), P36888 [D835Y]
[16] = biological target: HCK (human) (UniProt P08631)
[17] = biological target: IRAK4 (human) (UniProt Q9NWZ3)
[18] = biological target: LCK (human) (UniProt P06239)
[19] = biological target: MAPK1 (human) (UniProt P28482)
[20] = biological target: MAPK11 (human) (UniProt Q15759)
[21] = biological target: MARK1 (human) (UniProt Q9P0L2)
[22] = biological target: MARK3 (human) (UniProt P27448)
[23] = biological target: NEK2 (human) (UniProt P51955)
[24] = biological target: PAK2 (human) (UniProt Q13177)
[25] = biological target: PRKCZ (human) (UniProt Q05513)
[26] = biological target: PRKD1 (human) (UniProt Q15139)
[27] = biological target: PRKD2 (human) (UniProt Q9BZL6)
[28] = biological target: PRKD3 (human) (UniProt O94806)
[29] = biological target: PRKG1 (human) (UniProt Q13976)
[30] = biological target: RPS6KA4 KD1 KD2 (human) (UniProt O75676)
[31] = biological target: RPS6KB1 (human) (UniProt P23443)
[32] = biological target: SGK1 (human) (UniProt O00141)
[33] = biological target: STK3 (human) (UniProt Q13188)
[34] = biological target: SYK (human) (UniProt P43405)

Chain of RPS6KA4 KD1 KD2 (human) (O75676 whole entry, looked up): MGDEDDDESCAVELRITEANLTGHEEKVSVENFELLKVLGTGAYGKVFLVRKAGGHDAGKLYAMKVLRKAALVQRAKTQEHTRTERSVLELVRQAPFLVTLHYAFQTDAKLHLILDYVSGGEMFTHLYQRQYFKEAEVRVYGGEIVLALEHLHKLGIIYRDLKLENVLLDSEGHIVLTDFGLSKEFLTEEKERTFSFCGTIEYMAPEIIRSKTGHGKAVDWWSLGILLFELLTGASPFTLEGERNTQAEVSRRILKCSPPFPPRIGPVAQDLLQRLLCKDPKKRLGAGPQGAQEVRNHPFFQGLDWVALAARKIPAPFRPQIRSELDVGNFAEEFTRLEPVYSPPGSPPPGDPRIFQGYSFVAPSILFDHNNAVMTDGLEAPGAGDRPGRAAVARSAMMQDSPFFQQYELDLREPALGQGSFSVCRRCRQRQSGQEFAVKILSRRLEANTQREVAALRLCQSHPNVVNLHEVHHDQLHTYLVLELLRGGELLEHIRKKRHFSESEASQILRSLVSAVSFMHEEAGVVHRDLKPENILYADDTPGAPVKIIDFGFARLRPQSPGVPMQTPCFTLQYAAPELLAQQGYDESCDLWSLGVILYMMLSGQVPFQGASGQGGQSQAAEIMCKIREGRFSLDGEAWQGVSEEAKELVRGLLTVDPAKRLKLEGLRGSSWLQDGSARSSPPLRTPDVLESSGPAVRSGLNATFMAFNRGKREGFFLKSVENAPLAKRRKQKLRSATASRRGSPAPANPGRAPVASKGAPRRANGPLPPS
Chain of IRAK4 (human) (Q9NWZ3 whole entry, looked up): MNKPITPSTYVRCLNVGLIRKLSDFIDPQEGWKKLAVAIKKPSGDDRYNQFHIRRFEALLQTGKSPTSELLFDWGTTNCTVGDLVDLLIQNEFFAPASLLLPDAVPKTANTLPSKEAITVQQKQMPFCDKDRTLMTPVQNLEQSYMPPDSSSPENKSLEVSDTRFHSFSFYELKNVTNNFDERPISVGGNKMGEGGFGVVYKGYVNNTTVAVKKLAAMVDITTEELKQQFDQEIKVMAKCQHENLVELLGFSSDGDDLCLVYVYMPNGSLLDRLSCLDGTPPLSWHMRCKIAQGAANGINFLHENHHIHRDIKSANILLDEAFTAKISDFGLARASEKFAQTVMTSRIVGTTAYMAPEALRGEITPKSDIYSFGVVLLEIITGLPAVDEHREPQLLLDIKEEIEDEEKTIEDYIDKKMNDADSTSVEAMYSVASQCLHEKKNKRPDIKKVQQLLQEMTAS
Chain of CSNK1D (human) (P48730 whole entry, looked up): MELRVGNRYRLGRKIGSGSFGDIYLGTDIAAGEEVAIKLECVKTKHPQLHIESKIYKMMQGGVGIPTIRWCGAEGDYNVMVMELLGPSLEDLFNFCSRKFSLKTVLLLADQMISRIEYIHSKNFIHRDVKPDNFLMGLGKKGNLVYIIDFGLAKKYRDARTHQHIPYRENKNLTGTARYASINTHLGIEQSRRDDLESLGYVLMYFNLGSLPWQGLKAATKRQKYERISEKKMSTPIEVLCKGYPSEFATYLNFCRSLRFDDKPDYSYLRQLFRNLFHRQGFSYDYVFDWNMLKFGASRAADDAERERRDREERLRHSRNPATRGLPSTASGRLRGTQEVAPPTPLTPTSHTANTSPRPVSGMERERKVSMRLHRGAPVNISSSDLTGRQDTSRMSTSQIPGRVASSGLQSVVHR
Chain of CHEK2 (human) (O96017 whole entry, looked up): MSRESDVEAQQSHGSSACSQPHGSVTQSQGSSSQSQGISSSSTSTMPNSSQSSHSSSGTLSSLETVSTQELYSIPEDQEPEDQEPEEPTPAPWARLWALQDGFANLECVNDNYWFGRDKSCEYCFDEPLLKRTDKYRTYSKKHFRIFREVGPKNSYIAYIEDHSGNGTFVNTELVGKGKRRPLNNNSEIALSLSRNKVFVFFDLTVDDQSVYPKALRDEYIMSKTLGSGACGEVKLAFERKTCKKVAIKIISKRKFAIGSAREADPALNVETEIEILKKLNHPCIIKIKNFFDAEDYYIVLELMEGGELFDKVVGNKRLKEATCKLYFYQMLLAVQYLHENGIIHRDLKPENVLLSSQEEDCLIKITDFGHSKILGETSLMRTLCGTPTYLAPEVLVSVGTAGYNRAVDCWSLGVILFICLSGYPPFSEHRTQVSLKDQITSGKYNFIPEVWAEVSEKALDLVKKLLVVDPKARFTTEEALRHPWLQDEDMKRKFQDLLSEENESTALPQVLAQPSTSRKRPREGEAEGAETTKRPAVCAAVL
Chain of RPS6KB1 (human) (P23443 whole entry, looked up): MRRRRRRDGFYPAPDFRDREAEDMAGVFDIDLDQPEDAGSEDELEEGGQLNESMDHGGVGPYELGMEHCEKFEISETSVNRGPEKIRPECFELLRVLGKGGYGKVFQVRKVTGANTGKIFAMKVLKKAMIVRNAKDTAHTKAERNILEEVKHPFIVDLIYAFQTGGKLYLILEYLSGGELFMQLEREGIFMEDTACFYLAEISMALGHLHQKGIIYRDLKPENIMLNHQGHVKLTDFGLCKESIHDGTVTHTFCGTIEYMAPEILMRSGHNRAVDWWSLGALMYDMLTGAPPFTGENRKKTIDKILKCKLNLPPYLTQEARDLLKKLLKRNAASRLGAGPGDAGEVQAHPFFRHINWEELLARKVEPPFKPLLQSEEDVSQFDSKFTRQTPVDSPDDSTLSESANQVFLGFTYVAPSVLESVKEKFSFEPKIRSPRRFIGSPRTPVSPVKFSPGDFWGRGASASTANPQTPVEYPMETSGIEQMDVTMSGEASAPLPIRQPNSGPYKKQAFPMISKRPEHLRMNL
Chain of CAMK2G (human) (Q13555 whole entry, looked up): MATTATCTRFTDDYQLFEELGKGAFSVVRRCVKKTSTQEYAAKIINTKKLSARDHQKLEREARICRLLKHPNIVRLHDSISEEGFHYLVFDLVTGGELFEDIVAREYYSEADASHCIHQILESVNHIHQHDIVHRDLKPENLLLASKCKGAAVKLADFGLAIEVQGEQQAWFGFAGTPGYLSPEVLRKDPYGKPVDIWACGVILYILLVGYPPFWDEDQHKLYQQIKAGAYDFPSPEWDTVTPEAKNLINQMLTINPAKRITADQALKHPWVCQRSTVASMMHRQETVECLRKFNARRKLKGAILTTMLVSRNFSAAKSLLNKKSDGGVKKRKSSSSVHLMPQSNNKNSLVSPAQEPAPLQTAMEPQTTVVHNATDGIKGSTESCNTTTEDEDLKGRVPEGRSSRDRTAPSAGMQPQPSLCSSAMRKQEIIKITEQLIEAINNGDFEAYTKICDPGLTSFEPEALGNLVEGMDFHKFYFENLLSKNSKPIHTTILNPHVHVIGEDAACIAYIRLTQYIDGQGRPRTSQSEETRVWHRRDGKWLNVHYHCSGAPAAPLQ
Chain of SGK1 (human) (O00141 whole entry, looked up): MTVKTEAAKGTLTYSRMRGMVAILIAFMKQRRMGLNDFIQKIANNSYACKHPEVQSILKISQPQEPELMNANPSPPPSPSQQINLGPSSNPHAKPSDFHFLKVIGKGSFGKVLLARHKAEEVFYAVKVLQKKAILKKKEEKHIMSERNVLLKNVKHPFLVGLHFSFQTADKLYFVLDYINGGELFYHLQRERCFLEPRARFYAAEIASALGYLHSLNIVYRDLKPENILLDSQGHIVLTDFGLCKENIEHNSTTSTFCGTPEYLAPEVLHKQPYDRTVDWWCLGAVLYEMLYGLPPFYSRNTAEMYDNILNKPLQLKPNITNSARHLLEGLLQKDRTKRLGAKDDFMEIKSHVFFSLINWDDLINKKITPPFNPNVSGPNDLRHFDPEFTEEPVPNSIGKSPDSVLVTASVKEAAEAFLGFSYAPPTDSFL
Chain of PAK2 (human) (Q13177 whole entry, looked up): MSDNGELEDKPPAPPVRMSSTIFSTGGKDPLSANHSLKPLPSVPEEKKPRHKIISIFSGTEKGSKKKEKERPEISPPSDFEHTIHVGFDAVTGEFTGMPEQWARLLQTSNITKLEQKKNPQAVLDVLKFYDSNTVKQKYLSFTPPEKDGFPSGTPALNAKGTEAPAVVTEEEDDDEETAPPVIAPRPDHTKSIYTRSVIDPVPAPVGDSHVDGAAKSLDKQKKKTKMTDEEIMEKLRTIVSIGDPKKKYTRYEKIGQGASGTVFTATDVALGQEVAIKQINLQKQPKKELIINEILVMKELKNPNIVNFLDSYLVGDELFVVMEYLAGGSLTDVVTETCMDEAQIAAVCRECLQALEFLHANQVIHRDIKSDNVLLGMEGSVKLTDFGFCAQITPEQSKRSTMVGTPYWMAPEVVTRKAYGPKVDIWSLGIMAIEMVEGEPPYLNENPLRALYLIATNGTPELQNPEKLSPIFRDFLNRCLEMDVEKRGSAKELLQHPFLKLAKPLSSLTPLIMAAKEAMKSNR
Chain of AKT1 (human) (P31749 whole entry, looked up): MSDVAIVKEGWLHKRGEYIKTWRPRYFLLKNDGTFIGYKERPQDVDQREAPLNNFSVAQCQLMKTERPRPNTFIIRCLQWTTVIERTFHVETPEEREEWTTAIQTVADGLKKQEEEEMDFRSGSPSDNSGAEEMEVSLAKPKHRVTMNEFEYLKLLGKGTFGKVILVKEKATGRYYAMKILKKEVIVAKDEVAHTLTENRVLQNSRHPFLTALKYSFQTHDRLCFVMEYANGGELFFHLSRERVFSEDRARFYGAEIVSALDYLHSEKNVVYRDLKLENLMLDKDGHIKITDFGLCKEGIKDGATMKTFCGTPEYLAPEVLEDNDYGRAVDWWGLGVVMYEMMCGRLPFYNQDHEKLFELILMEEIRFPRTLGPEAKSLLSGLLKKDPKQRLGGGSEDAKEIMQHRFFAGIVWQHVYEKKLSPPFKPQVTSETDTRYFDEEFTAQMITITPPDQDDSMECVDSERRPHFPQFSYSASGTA

inhibition ([1]; compound 0.1 µM): 1.4% | inhibition ([1]; compound 1.0 µM): 1.1% | inhibition ([2]; compound 0.1 µM): 2.6% | inhibition ([2]; compound 1.0 µM): -3.4% | inhibition ([3]; compound 0.1 µM): -7.2% | inhibition ([3]; compound 1.0 µM): 1.7% | inhibition ([4]; compound 0.1 µM): -12.5% | inhibition ([4]; compound 1.0 µM): 2.1% | inhibition ([5]; compound 0.1 µM): 8% | inhibition ([5]; compound 1.0 µM): 27.6% | inhibition ([6]; compound 0.1 µM): 7.5% | inhibition ([6]; compound 1.0 µM): 18.6% | inhibition ([7]; compound 0.1 µM): -22.5% | inhibition ([7]; compound 1.0 µM): -4.6% | inhibition ([8]; compound 0.1 µM): -3.5% | inhibition ([8]; compound 1.0 µM): -2.8% | inhibition ([9]; compound 0.1 µM): 4.2% | inhibition ([9]; compound 1.0 µM): 1.2% | inhibition ([10]; compound 0.1 µM): -7.1% | inhibition ([10]; compound 1.0 µM): -2.9% | inhibition ([11]; compound 0.1 µM): 2% | inhibition ([11]; compound 1.0 µM): 5.8% | inhibition ([12]; compound 0.1 µM): -14.2% | inhibition ([12]; compound 1.0 µM): 0.5% | inhibition ([13]; compound 0.1 µM): 0.5% | inhibition ([13]; compound 1.0 µM): 4.9% | inhibition ([14]; compound 0.1 µM): -3% | inhibition ([14]; compound 1.0 µM): -3.3% | inhibition ([15]; compound 0.1 µM): -1% | inhibition ([15]; compound 1.0 µM): 3.4% | inhibition ([16]; compound 0.1 µM): -1.8% | inhibition ([16]; compound 1.0 µM): 3.1% | inhibition ([17]; compound 0.1 µM): -10.2% | inhibition ([17]; compound 1.0 µM): 0.3% | inhibition ([18]; compound 0.1 µM): -3.4% | inhibition ([18]; compound 1.0 µM): -2.9% | inhibition ([19]; compound 0.1 µM): -1.2% | inhibition ([19]; compound 1.0 µM): 3.7% | inhibition ([20]; compound 0.1 µM): 0.6% | inhibition ([20]; compound 1.0 µM): -1% | inhibition ([21]; compound 0.1 µM): -5.4% | inhibition ([21]; compound 1.0 µM): -1.3% | inhibition ([22]; compound 0.1 µM): 0.7% | inhibition ([22]; compound 1.0 µM): -4.4% | inhibition ([23]; compound 0.1 µM): 6.6% | inhibition ([23]; compound 1.0 µM): 2.7% | inhibition ([24]; compound 0.1 µM): 2.1% | inhibition ([24]; compound 1.0 µM): 13.1% | inhibition ([25]; compound 0.1 µM): 0.7% | inhibition ([25]; compound 1.0 µM): 1.2% | inhibition ([26]; compound 0.1 µM): 7% | inhibition ([26]; compound 1.0 µM): 11% | inhibition ([27]; compound 0.1 µM): 7.5% | inhibition ([27]; compound 1.0 µM): 0% | inhibition ([28]; compound 0.1 µM): -21.2% | inhibition ([28]; compound 1.0 µM): 2.2% | inhibition ([29]; compound 0.1 µM): -5% and 4.5% | inhibition ([29]; compound 1.0 µM): -1.6% and 0.1% | inhibition ([30]; compound 0.1 µM): -5.8% | inhibition ([30]; compound 1.0 µM): 1% | inhibition ([31]; compound 0.1 µM): 10.9% | inhibition ([31]; compound 1.0 µM): -3.3% | inhibition ([32]; compound 0.1 µM): -2.2% | inhibition ([32]; compound 1.0 µM): -6% | inhibition ([33]; compound 0.1 µM): 1.9% | inhibition ([33]; compound 1.0 µM): 4.5% | inhibition ([34]; compound 0.1 µM): -0.6% | inhibition ([34]; compound 1.0 µM): -0.5%
SMILES: O=C(CCc1ccc2ccc3ncc(C4CCNCC4)cc3c(=O)c2c1)NCc1ccccn1

inhibition ([1]; compound 0.1 µM): -1.8% | inhibition ([1]; compound 1.0 µM): 42.1% | inhibition ([2]; compound 0.1 µM): -2.4% | inhibition ([2]; compound 1.0 µM): 18% | inhibition ([3]; compound 0.1 µM): -4.1% | inhibition ([3]; compound 1.0 µM): 6.2% | inhibition ([4]; compound 0.1 µM): 6.2% | inhibition ([4]; compound 1.0 µM): 5.2% | inhibition ([5]; compound 0.1 µM): 37.1% | inhibition ([5]; compound 1.0 µM): 80.7% | inhibition ([6]; compound 0.1 µM): 31.7% | inhibition ([6]; compound 1.0 µM): 75.8% | inhibition ([7]; compound 1.0 µM): -1.3% | inhibition ([8]; compound 1.0 µM): 0.4% | inhibition ([9]; compound 0.1 µM): -1.5% | inhibition ([9]; compound 1.0 µM): 6.9% | inhibition ([10]; compound 0.1 µM): 3.5% | inhibition ([10]; compound 1.0 µM): 8.9% | inhibition ([11]; compound 0.1 µM): 8.6% | inhibition ([11]; compound 1.0 µM): 4.1% | inhibition ([12]; compound 0.1 µM): 24.1% | inhibition ([12]; compound 1.0 µM): -2.5% | inhibition ([13]; compound 0.1 µM): 26.3% | inhibition ([13]; compound 1.0 µM): 81% | inhibition ([14]; compound 0.1 µM): 8.9% | inhibition ([14]; compound 1.0 µM): 22.4% | inhibition ([15]; compound 0.1 µM): 49.8% | inhibition ([15]; compound 1.0 µM): 86.5% | inhibition ([16]; compound 0.1 µM): 9.4% | inhibition ([16]; compound 1.0 µM): 14.6% | inhibition ([17]; compound 0.1 µM): 7% | inhibition ([17]; compound 1.0 µM): 16.1% | inhibition ([18]; compound 0.1 µM): -3.5% | inhibition ([18]; compound 1.0 µM): 11.3% | inhibition ([19]; compound 0.1 µM): -4% | inhibition ([19]; compound 1.0 µM): 1.8% | inhibition ([20]; compound 0.1 µM): -0.1% | inhibition ([20]; compound 1.0 µM): -5.4% | inhibition ([21]; compound 0.1 µM): 6.6% | inhibition ([21]; compound 1.0 µM): 16.4% | inhibition ([22]; compound 0.1 µM): -1.8% | inhibition ([22]; compound 1.0 µM): 5.3% | inhibition ([23]; compound 0.1 µM): -6% | inhibition ([23]; compound 1.0 µM): -4.9% | inhibition ([24]; compound 0.1 µM): 10.2% | inhibition ([24]; compound 1.0 µM): 5.3% | inhibition ([25]; compound 0.1 µM): 1.7% | inhibition ([25]; compound 1.0 µM): 3.7% | inhibition ([26]; compound 0.1 µM): -0.4% | inhibition ([26]; compound 1.0 µM): 1.9% | inhibition ([27]; compound 0.1 µM): 5.7% | inhibition ([27]; compound 1.0 µM): -9.6% | inhibition ([28]; compound 0.1 µM): 8% | inhibition ([28]; compound 1.0 µM): 9.4% | inhibition ([29]; compound 0.1 µM): 8.1% and 4.1% | inhibition ([29]; compound 1.0 µM): 11.8% and 4.9% | inhibition ([30]; compound 0.1 µM): -2.2% | inhibition ([30]; compound 1.0 µM): 7.4% | inhibition ([31]; compound 0.1 µM): -1% | inhibition ([31]; compound 1.0 µM): -6.2% | inhibition ([32]; compound 0.1 µM): -0.4% | inhibition ([32]; compound 1.0 µM): 6.4% | inhibition ([33]; compound 0.1 µM): -6% | inhibition ([33]; compound 1.0 µM): 7.6% | inhibition ([34]; compound 0.1 µM): 8.7% | inhibition ([34]; compound 1.0 µM): 15.8%
SMILES: CN(c1ccc2ccc3ncc(-c4cnn(C)c4)cc3c(=O)c2c1)S(=O)(=O)NCc1ccccn1

inhibition ([1]; compound 0.01 µM): 2.2% | inhibition ([1]; compound 0.1 µM): 0.5% | inhibition ([2]; compound 0.01 µM): -2.4% | inhibition ([2]; compound 0.1 µM): -4.3% | inhibition ([3]; compound 0.01 µM): 0.8% | inhibition ([3]; compound 0.1 µM): 7.4% | inhibition ([4]; compound 0.01 µM): -2.7% | inhibition ([4]; compound 0.1 µM): 5.2% | inhibition ([5]; compound 0.01 µM): -0.1% | inhibition ([5]; compound 0.1 µM): 11.7% | inhibition ([6]; compound 0.01 µM): -1.6% | inhibition ([6]; compound 0.1 µM): 15.4% | inhibition ([7]; compound 0.01 µM): 2.4% | inhibition ([7]; compound 0.1 µM): -6.5% | inhibition ([8]; compound 0.01 µM): 13.5% | inhibition ([8]; compound 0.1 µM): -2.8% | inhibition ([9]; compound 0.01 µM): -2.6% | inhibition ([9]; compound 0.1 µM): -7.4% | inhibition ([10]; compound 0.01 µM): -3.5% | inhibition ([10]; compound 0.1 µM): 8.9% | inhibition ([11]; compound 0.01 µM): 1.7% | inhibition ([11]; compound 0.1 µM): 7.8% | inhibition ([12]; compound 0.01 µM): -1% | inhibition ([12]; compound 0.1 µM): 0.2% | inhibition ([13]; compound 0.01 µM): -4% | inhibition ([13]; compound 0.1 µM): 7.8% | inhibition ([14]; compound 0.01 µM): -3% | inhibition ([14]; compound 0.1 µM): 9.7% | inhibition ([15]; compound 0.01 µM): -3% | inhibition ([15]; compound 0.1 µM): 6.8% | inhibition ([16]; compound 0.01 µM): 3.5% | inhibition ([16]; compound 0.1 µM): 7.6% | inhibition ([17]; compound 0.01 µM): -10% | inhibition ([17]; compound 0.1 µM): 6.7% | inhibition ([18]; compound 0.01 µM): 8.2% | inhibition ([18]; compound 0.1 µM): 7.3% | inhibition ([19]; compound 0.01 µM): -10.5% | inhibition ([19]; compound 0.1 µM): -4.8% | inhibition ([20]; compound 0.01 µM): -7.7% | inhibition ([20]; compound 0.1 µM): 4.9% | inhibition ([21]; compound 0.01 µM): 0.6% | inhibition ([21]; compound 0.1 µM): 5.5% | inhibition ([22]; compound 0.01 µM): -3.5% | inhibition ([22]; compound 0.1 µM): -0.6% | inhibition ([23]; compound 0.01 µM): 0.9% | inhibition ([23]; compound 0.1 µM): -2.6% | inhibition ([24]; compound 0.01 µM): 4.4% | inhibition ([24]; compound 0.1 µM): 4.9% | inhibition ([25]; compound 0.01 µM): 1.8% | inhibition ([25]; compound 0.1 µM): 3.6% | inhibition ([26]; compound 0.01 µM): -2.4% | inhibition ([26]; compound 0.1 µM): 11.3% | inhibition ([27]; compound 0.01 µM): 1.6% | inhibition ([27]; compound 0.1 µM): -3.6% | inhibition ([28]; compound 0.01 µM): -2.4% | inhibition ([28]; compound 0.1 µM): 10.4% | inhibition ([29]; compound 0.01 µM): 3.2% and -1.8% | inhibition ([29]; compound 0.1 µM): 9.2% and -4.9% | inhibition ([30]; compound 0.01 µM): -2.3% | inhibition ([30]; compound 0.1 µM): -2.1% | inhibition ([31]; compound 0.01 µM): 8% | inhibition ([31]; compound 0.1 µM): 4.2% | inhibition ([32]; compound 0.01 µM): 2.1% | inhibition ([32]; compound 0.1 µM): 9.1% | inhibition ([33]; compound 0.01 µM): 7.9% | inhibition ([33]; compound 0.1 µM): 17.7% | inhibition ([34]; compound 0.01 µM): 1.3% | inhibition ([34]; compound 0.1 µM): -4.4%
SMILES: Cn1cc(-c2cnc3ccc4ccc(CS(=O)(=O)NC5CCCCC5)cc4c(=O)c3c2)cn1
